Reference: patent publication US10449213B2, “Combinatorial approach to treating Alzheimer's disease” (Florida State University Research Foundation, Inc., priority 2011, dated 2019)
Like-named read-outs stand apart in the source and are kept apart here.

Key:
Aβ(1-40) = target: T1, Aβ(1-40) (Homo sapiens, UniProt P05067); assay: Surface plasmon resonance (Biacore T-200), immobilized Aβ(1-40); conditions: freshly prepared Aβ(1-40) immobilized on CM5 chip, 25° C., fit to 1:1 binding model; read-out: binding constant (SPR)
T1 construct: Synthetic Aβ(1-40) peptide was purchased from Biopeptide, Inc; purchased Biopeptide, Inc; host or cells: chemical synthesis
T1 sequence (P05067 672-711 limits assumed): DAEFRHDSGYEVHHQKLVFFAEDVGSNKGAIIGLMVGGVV
Procedure: Surface Plasmon Resonance (SPR) Experiments. The binding of Aβ(1-40) and vitamin B12 was analyzed by SPR using a Biacore T-200 optical biosensor (Biacore/GE Healthcare). The Aβ peptide was immobilized on CM5 sensor chips using amine coupling chemistry. Briefly, the carboxymethyl dextran surface of a CM5 sensor chip was activated with a 1:1 mixture of 0.4 M 1-ethyl-3-(3-dimethylaminopropyl)-carbodiimide (EDC) and 0.1 M N-hydroxysuccinimide (NHS) at 25° C. A peptide surface (400-800 RU) was created by pulsing Aβ in 10 mM sodium acetate at pH 4.5 over the flow cell. The remaining binding sites on the dextran surface were blocked with […], pH 8.5. A reference surface was activated and blocked as outlined above.
Binding experiments were carried out using HBS-EP+ running buffer (0.1 M Hepes, 1.5 M NaCl, 30 mM EDTA, 0.05% v/v surfactant P-20, pH 7.4) at 25° C. All components were 0.22 μm-filtered prior to use. […] Data were analyzed using T200 BiaEvaluation 1.0 (Biacore) software and fit to a 1:1 binding model.
In the SPR experiments, freshly prepared Aβ(1-40) was immobilized on a chip. […] Referring to FIG. 7, a concentration dependent change in the refractive index at the surface of the chip was detected. This change, reflective of the Aβ peptide/B12 interaction, was monitored in real time. […]

Aβ(1-40) peptide [1] = target: T2, Aβ(1-40) peptide (Homo sapiens, UniProt P05067); assay: Intrinsic tyrosine fluorescence titration of Aβ(1-40) with vitamin B12; conditions: 50 μM in PBS, 25° C., 1:1 binding stoichiometry, read-out: binding constant, KD
T2 construct: Synthetic Aβ(1-40) peptide was purchased from Biopeptide, Inc; purchased Biopeptide, Inc; host or cells: chemical synthesis
T2 sequence (P05067 672-711 limits assumed): as above
Procedure: Samples of Aβ(1-40) were reconstituted in phosphate buffer saline (PBS) (137 mM NaCl, 2.7 mM KCl, 10 mM Na2HPO4, 2 mM KH2PO4, pH 7.4), except in surface plasmon resonance experiments, as described below. Immediately after reconstitution into PBS, the pH of the solution was adjusted to 10, allowing for solubilization of the peptide. The pH was then readjusted to 7.4, followed by filtration through a 0.22 μm supor membrane filter. Concentrations of Aβ(1-40) were determined using UV-Vis spectroscopy (Cary 300 spectrophotometer, Varian, Inc) and an extinction coefficient of 1,490 M^−1 cm^−1 at 280 nm. Aβ(1-40) samples used in fluorescence experiments to examine peptide/B12 binding included freshly prepared, monomeric Aβ species and “aged” Aβ, incubated for seven days and containing high-molecular weight species.
Preparation of Vitamin B12 Samples. […] Concentrations of B12 were determined using UV-Vis spectroscopy (Cary300 spectrophotometer, Varian, Inc) and an extinction coefficient of 4,900 M^−1 cm^−1 at 525 nm.
Intrinsic Tyrosine Fluorescence Spectroscopy Experiments on Amyloid-Beta Peptide in the Presence of Vitamin B12. Intrinsic tyrosine fluorescence was measured as previously described by Lakowicz in Principles of Fluorescence Spectroscopy. […] The binding constant, KD, was calculated using equation (1) in SigmaPlot 9.0 (Systat Software, Inc.) assuming 1:1 binding stoichiometry. […]

Aβ(1-40) peptide [2] = target: T2, Aβ(1-40) peptide; assay: Thioflavin T fluorescence, fibril formation by Aβ(1-40); format: biochemical; conditions: Aβ(1-40) 30 μM, 37° C.
Procedure: Thioflavin T Fluorescence Spectroscopy Experiments on Amyloid-Beta Peptide in the Presence of Vitamin B12. The Fluorescence signal was measured as previously described using a Biotek Flx800 fluorescence microplate reader. Aβ(1-40) peptide samples (30 μM) were incubated at 37° C. in the presence or absence of B12. Following incubation, ThT was added to a final concentration of 10 μM as a probe for fibril formation by Aβ(1-40). All fluoresce readings were corrected for 10 mM sodium phosphate buffer contribution. Thioflavin T (ThT) (Sigma Aldrich) was reconstituted in Nanopure water, aliquoted, and stored at −20° C. Concentration of ThT was determined using UV-Vis spectroscopy (Cary300 spectrophotometer, Varian, Inc) and an extinction coefficient of 36,000 M^−1 cm^−1 at 412 nm.

hippocampal neurons = assay: Aβ-induced neuronal cell death in hippocampal cell culture, Trypan Blue counting; format: cell-based, Wistar rat; conditions: pre-aggregated Aβ(1-40) 25 μM, B12 50, 25 or 12.5 μM, 72 hours
Procedure: Neuronal Cell Culture Experiments. Neuronal cell culture experiments were conducted using methodologies described previously by Lee, et al in Cell, Vol. 111(2), pages 219-230 (2002); Lei, et al in EMBO J, Vol. 21(12), pages 2977-2989 (2002); Xin, et al in J Neurosci, Vol. 25(1), pages 139-48 (2005); and Xin, et al in European Journal of Neuroscience, Vol. 21(3), pages 622-636 (2005).
Briefly, hippocampal tissue was dissected from Wistar rat embryos (18 days gestation or E18) at 4° C. Dissociated hippocampal neurons were plated at a density of approximately 2.0×10^4 cells/cm^2 onto 35 mm culture dishes coated with poly-D-lysine. Neurons were matured in culture for 21 days in vitro in NEUROBASAL® media (Invitrogen) supplemented with B27 (2%), bFGF2 (2 ng/mL) and L-glutamine (0.5 mM). The Aβ(1-40) was dissolved in DMSO, followed by dilution into culture medium (final DMSO concentration was 1%), and incubation at 37° C. for three days to form Aβ(1-40) oligomeric species. […]
Trypan Blue Staining and Cell Counting. […] Five random fields, one from each corner and one from the center of the dish, were counted for both live and dead cells at 63× magnification to obtain a percentage of cell death. […]
The physiological relevance of the B12/Aβ interaction was evaluated using neuronal cell culture experiments. […]

C/C1=C2/[N-][C@H]([C@H](CC(N)=O)[C@@]2(C)CCC(=O)NC[C@@H](C)OP(=O)([O-])O[C@H]2[C@@H](O)[C@@H](n3cnc4cc(C)c(C)cc43)O[C@@H]2CO)[C@]2(C)N=C(/C(C)=C3N=C(/C=C4N=C1[C@@H](CCC(N)=O)C\4(C)C)[C@@H](CCC(N)=O)[C@]\3(C)CC(N)=O)[C@@H](CCC(N)=O)[C@]2(C)CC(N)=O.[Co+3].[OH-] [vitamin B12, hydroxocobalamin] gave a Kd (Aβ(1-40)) of 132 µM, a Kd (Aβ(1-40) peptide [1]; monomeric (freshly prepared) Aβ(1-40)) of 87 ± 2.7 µM and a Kd (Aβ(1-40) peptide [1]; self-associated (aged, seven days) Aβ(1-40)) of 96.1 ± 3.5 µM. The “ThT fluorescence after addition to pre-formed Aβ(1-40) aggregates (fibril dissociation)” value (Aβ(1-40) peptide [2]; B12 added to fibrils formed in its absence) was “reduction of the ThT fluorescence”, the “ThT fluorescence signal of Aβ(1-40) incubated in the presence of vitamin B12 (self-association)” value (Aβ(1-40) peptide [2]; incubated with B12) was “no increase in the ThT fluorescence signal” and the “neuronal cell death upon addition of amyloid-beta peptide” value (hippocampal neurons) was “alleviated”.
